Legend:
Experiment in all cases: relative viability (nuclei count vs DMSO), 5 days (fraction); higher = more cells survive
[1] = test system: NCI-H596
Method in brief: (§1)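 Lung cancer cell lines, seeded in 1536-well plates, were treated the following day by pin tool with a single drug or with five library-drug doses (not always all listed) in √10 steps on top of a fixed anchor-drug dose. Cells were fixed and nuclei stained in one step after 5 days, and nuclei were counted. Relative viability is the nuclei count for treated wells divided by that for vehicle wells, reported as medians of duplicate plates.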

[2] = test system: LXF-289
Method in brief: as §1

[3] = test system: NCI-H1755
Method in brief: as §1

[4] = test system: NCI-H1734
Method in brief: as §1

[5] = test system: SK-LU-1
Method in brief: as §1

[6] = test system: HCC-366
Method in brief: as §1

[7] = test system: NCI-H1993
Method in brief: as §1

[8] = test system: NCI-H1975
Method in brief: as §1

[9] = test system: HCC-78
Method in brief: as §1

[10] = test system: NCI-H1648
Method in brief: as §1

[11] = test system: NCI-H522
Method in brief: as §1

[12] = test system: 201T
Method in brief: as §1

[13] = test system: NCI-H3122
Method in brief: as §1

[14] = test system: NCI-H1944
Method in brief: as §1

[15] = test system: COR-L23
Method in brief: as §1

[16] = test system: NCI-H2342
Method in brief: as §1

[17] = test system: LU99A
Method in brief: as §1

[18] = test system: BEN
Method in brief: as §1

[19] = test system: HCC-15
Method in brief: as §1

[20] = test system: COR-L 105
Method in brief: as §1

[21] = test system: NCI-H1650
Method in brief: as §1

[22] = test system: EKVX
Method in brief: as §1

[23] = test system: HARA
Method in brief: as §1

[24] = test system: HCC-827
Method in brief: as §1

CCCCCCCCCCCC1=C(O)C(=O)C=C(O)C1=O [Embelin] + COc1cccc2cc(-c3nc([C@H]4CC[C@H](C(=O)O)CC4)n4ncnc(N)c34)[nH]c12 [OSI-027] (partner 0.5 µM)
relative viability ([1]; first compound 0.08 µM): 0.773
relative viability ([1]; first compound 0.8 µM): 0.854
relative viability ([1]; first compound 2.53 µM): 0.771
relative viability ([1]; first compound 8 µM): 0.454
relative viability ([2]; first compound 0.08 µM): 0.796
relative viability ([2]; first compound 0.8 µM): 0.952
relative viability ([2]; first compound 2.53 µM): 0.801
relative viability ([2]; first compound 8 µM): 0.873
relative viability ([3]; first compound 0.08 µM): 0.829
relative viability ([3]; first compound 0.8 µM): 0.709
relative viability ([3]; first compound 2.53 µM): 0.634
relative viability ([3]; first compound 8 µM): 0.691
relative viability ([4]; first compound 0.08 µM): 0.648
relative viability ([4]; first compound 0.8 µM): 0.771
relative viability ([4]; first compound 2.53 µM): 0.618
relative viability ([4]; first compound 8 µM): 0.608
relative viability ([5]; first compound 0.08 µM): 0.409
relative viability ([5]; first compound 0.8 µM): 0.373
relative viability ([5]; first compound 2.53 µM): 0.383
relative viability ([5]; first compound 8 µM): 0.34
relative viability ([6]; first compound 0.08 µM): 0.926
relative viability ([6]; first compound 0.8 µM): 1.16
relative viability ([6]; first compound 2.53 µM): 1.03
relative viability ([6]; first compound 8 µM): 0.905
relative viability ([7]; first compound 0.08 µM): 0.577
relative viability ([7]; first compound 0.8 µM): 0.556
relative viability ([7]; first compound 2.53 µM): 0.606
relative viability ([7]; first compound 8 µM): 0.547
relative viability ([8]; first compound 0.08 µM): 0.728
relative viability ([8]; first compound 0.8 µM): 0.817
relative viability ([8]; first compound 2.53 µM): 0.88
relative viability ([8]; first compound 8 µM): 0.768
relative viability ([9]; first compound 0.08 µM): 0.371
relative viability ([9]; first compound 0.8 µM): 0.369
relative viability ([9]; first compound 2.53 µM): 0.343
relative viability ([9]; first compound 8 µM): 0.41
relative viability ([10]; first compound 0.08 µM): 0.263
relative viability ([10]; first compound 0.8 µM): 0.293
relative viability ([10]; first compound 2.53 µM): 0.248
relative viability ([10]; first compound 8 µM): 0.278
relative viability ([11]; first compound 0.08 µM): 0.677
relative viability ([11]; first compound 0.8 µM): 0.714
relative viability ([11]; first compound 2.53 µM): 0.752
relative viability ([11]; first compound 8 µM): 0.641
relative viability ([12]; first compound 0.08 µM): 0.72
relative viability ([12]; first compound 0.8 µM): 0.883
relative viability ([12]; first compound 2.53 µM): 0.746
relative viability ([12]; first compound 8 µM): 0.83
relative viability ([13]; first compound 0.08 µM): 0.857
relative viability ([13]; first compound 0.8 µM): 1.15
relative viability ([13]; first compound 2.53 µM): 1.31
relative viability ([13]; first compound 8 µM): 0.875
relative viability ([14]; first compound 0.08 µM): 0.41
relative viability ([14]; first compound 0.8 µM): 0.462
relative viability ([14]; first compound 2.53 µM): 0.358
relative viability ([14]; first compound 8 µM): 0.425
relative viability ([15]; first compound 0.08 µM): 0.756
relative viability ([15]; first compound 0.8 µM): 0.92
relative viability ([15]; first compound 2.53 µM): 0.923
relative viability ([15]; first compound 8 µM): 0.921
relative viability ([16]; first compound 0.08 µM): 0.666
relative viability ([16]; first compound 0.8 µM): 0.59
relative viability ([16]; first compound 2.53 µM): 0.676
relative viability ([16]; first compound 8 µM): 0.68
relative viability ([17]; first compound 0.08 µM): 0.323
relative viability ([17]; first compound 0.8 µM): 0.358
relative viability ([17]; first compound 2.53 µM): 0.27
relative viability ([17]; first compound 8 µM): 0.282
relative viability ([18]; first compound 0.08 µM): 0.287
relative viability ([18]; first compound 0.8 µM): 0.341
relative viability ([18]; first compound 2.53 µM): 0.338
relative viability ([18]; first compound 8 µM): 0.289
relative viability ([19]; first compound 0.08 µM): 0.666
relative viability ([19]; first compound 0.8 µM): 0.758
relative viability ([19]; first compound 2.53 µM): 0.721
relative viability ([19]; first compound 8 µM): 0.625
relative viability ([20]; first compound 0.08 µM): 0.693
relative viability ([20]; first compound 0.8 µM): 0.836
relative viability ([20]; first compound 2.53 µM): 0.602
relative viability ([20]; first compound 8 µM): 0.621
relative viability ([21]; first compound 0.08 µM): 0.791
relative viability ([21]; first compound 0.8 µM): 0.801
relative viability ([21]; first compound 2.53 µM): 0.653
relative viability ([21]; first compound 8 µM): 0.598
relative viability ([22]; first compound 0.08 µM): 0.715
relative viability ([22]; first compound 0.8 µM): 0.677
relative viability ([22]; first compound 2.53 µM): 0.789
relative viability ([22]; first compound 8 µM): 0.743
relative viability ([23]; first compound 0.08 µM): 0.5
relative viability ([23]; first compound 0.8 µM): 0.701
relative viability ([23]; first compound 2.53 µM): 0.601
relative viability ([23]; first compound 8 µM): 0.526
relative viability ([24]; first compound 0.08 µM): 0.749
relative viability ([24]; first compound 0.8 µM): 0.797
relative viability ([24]; first compound 2.53 µM): 0.836
relative viability ([24]; first compound 8 µM): 0.866

CCCCCCCCCCCC1=C(O)C(=O)C=C(O)C1=O [Embelin] + Nc1ncn([C@H]2C[C@H](O)[C@@H](CO)O2)c(=O)n1 [Decitabine] (partner 2 µM)
relative viability ([1]; first compound 0.08 µM): 0.945
relative viability ([1]; first compound 0.8 µM): 0.958
relative viability ([1]; first compound 2.53 µM): 1.19
relative viability ([1]; first compound 8 µM): 1.06
relative viability ([2]; first compound 0.08 µM): 0.396
relative viability ([2]; first compound 0.8 µM): 0.419
relative viability ([2]; first compound 2.53 µM): 0.455
relative viability ([2]; first compound 8 µM): 0.352
relative viability ([3]; first compound 0.08 µM): 0.767
relative viability ([3]; first compound 0.8 µM): 0.72
relative viability ([3]; first compound 2.53 µM): 0.781
relative viability ([3]; first compound 8 µM): 0.753
relative viability ([4]; first compound 0.08 µM): 0.514
relative viability ([4]; first compound 0.8 µM): 0.56
relative viability ([4]; first compound 2.53 µM): 0.56
relative viability ([4]; first compound 8 µM): 0.516
relative viability ([5]; first compound 0.08 µM): 0.617
relative viability ([5]; first compound 0.8 µM): 0.683
relative viability ([5]; first compound 2.53 µM): 0.709
relative viability ([5]; first compound 8 µM): 0.641
relative viability ([6]; first compound 0.08 µM): 0.341
relative viability ([6]; first compound 0.8 µM): 0.306
relative viability ([6]; first compound 2.53 µM): 0.372
relative viability ([6]; first compound 8 µM): 0.336
relative viability ([7]; first compound 0.08 µM): 0.481
relative viability ([7]; first compound 0.8 µM): 0.608
relative viability ([7]; first compound 2.53 µM): 0.627
relative viability ([7]; first compound 8 µM): 0.548
relative viability ([8]; first compound 0.08 µM): 0.377
relative viability ([8]; first compound 0.8 µM): 0.432
relative viability ([8]; first compound 2.53 µM): 0.37
relative viability ([8]; first compound 8 µM): 0.586
relative viability ([9]; first compound 0.08 µM): 0.739
relative viability ([9]; first compound 0.8 µM): 0.751
relative viability ([9]; first compound 2.53 µM): 0.71
relative viability ([9]; first compound 8 µM): 0.675
relative viability ([10]; first compound 0.08 µM): 0.577
relative viability ([10]; first compound 0.8 µM): 0.549
relative viability ([10]; first compound 2.53 µM): 0.548
relative viability ([10]; first compound 8 µM): 0.365
relative viability ([11]; first compound 0.08 µM): 0.647
relative viability ([11]; first compound 0.8 µM): 0.617
relative viability ([11]; first compound 2.53 µM): 0.578
relative viability ([11]; first compound 8 µM): 0.704
relative viability ([12]; first compound 0.08 µM): 0.82
relative viability ([12]; first compound 0.8 µM): 0.884
relative viability ([12]; first compound 2.53 µM): 0.853
relative viability ([12]; first compound 8 µM): 0.831
relative viability ([13]; first compound 0.08 µM): 0.385
relative viability ([13]; first compound 0.8 µM): 0.446
relative viability ([13]; first compound 2.53 µM): 0.419
relative viability ([13]; first compound 8 µM): 0.397
relative viability ([14]; first compound 0.08 µM): 0.436
relative viability ([14]; first compound 0.8 µM): 0.406
relative viability ([14]; first compound 2.53 µM): 0.5
relative viability ([14]; first compound 8 µM): 0.443
relative viability ([15]; first compound 0.08 µM): 0.454
relative viability ([15]; first compound 0.8 µM): 0.479
relative viability ([15]; first compound 2.53 µM): 0.433
relative viability ([15]; first compound 8 µM): 0.393
relative viability ([16]; first compound 0.08 µM): 0.71
relative viability ([16]; first compound 0.8 µM): 0.722
relative viability ([16]; first compound 2.53 µM): 0.842
relative viability ([16]; first compound 8 µM): 0.741
relative viability ([17]; first compound 0.08 µM): 1.01
relative viability ([17]; first compound 0.8 µM): 1.08
relative viability ([17]; first compound 2.53 µM): 0.942
relative viability ([17]; first compound 8 µM): 0.91
relative viability ([18]; first compound 0.08 µM): 0.717
relative viability ([18]; first compound 0.8 µM): 0.813
relative viability ([18]; first compound 2.53 µM): 0.812
relative viability ([18]; first compound 8 µM): 0.559
relative viability ([19]; first compound 0.08 µM): 0.619
relative viability ([19]; first compound 0.8 µM): 0.694
relative viability ([19]; first compound 2.53 µM): 0.697
relative viability ([19]; first compound 8 µM): 0.617
relative viability ([20]; first compound 0.08 µM): 0.676
relative viability ([20]; first compound 0.8 µM): 0.715
relative viability ([20]; first compound 2.53 µM): 0.657
relative viability ([20]; first compound 8 µM): 0.751
relative viability ([21]; first compound 0.08 µM): 0.354
relative viability ([21]; first compound 0.8 µM): 0.362
relative viability ([21]; first compound 2.53 µM): 0.457
relative viability ([21]; first compound 8 µM): 0.384
relative viability ([22]; first compound 0.08 µM): 0.41
relative viability ([22]; first compound 0.8 µM): 0.4
relative viability ([22]; first compound 2.53 µM): 0.314
relative viability ([22]; first compound 8 µM): 0.313
relative viability ([23]; first compound 0.08 µM): 0.51
relative viability ([23]; first compound 0.8 µM): 0.549
relative viability ([23]; first compound 2.53 µM): 0.587
relative viability ([23]; first compound 8 µM): 0.573
relative viability ([24]; first compound 0.08 µM): 0.336
relative viability ([24]; first compound 0.8 µM): 0.333
relative viability ([24]; first compound 2.53 µM): 0.38
relative viability ([24]; first compound 8 µM): 0.355
